Reference: patent publication US6448283B1, “Methods for preventing/treating damage to sensory hair cells and cochlear neurons” (Cephalon, Inc., priority 1998, dated 2002)
Entries after “also recorded” stand apart in the source; their conditions may differ.

Test system: outer hair cells in organotypic cultures of the neonatal organ of Corti
Assay: Hair cell counts in neomycin-exposed cochlear explant cultures
Type: cell-based, rat
Experimental: (§1) The basal half of cochleas containing the basal and middle turns were dissected from postnatal day 2 Wistar rats. The cultures were maintained on Nuclepore filters (pore size […]; Pleasanton, Calif.) placed on a metal grid in F12 medium (Life Technologies, Gaithersburg, Md.) containing 15% fetal bovine serum (Life Technologies). After a 2-hour-long stabilization period, explants were exposed to 100 mM neomycin sulfate (Sigma, St Louis, Mo.) for 48 hr.
(§2) Explants were fixed with 4% paraformaldehyde/0.5% glutaraldehyde in phosphate buffered saline (PBS), pH 7.4, for 30 min and dissected for surface preparations. They were stained with a 1:100 dilution of rhodamine-phalloidin in PBS containing 0.25% Triton X-l 00 overnight at 4° C. and mounted in Vectashield (Vector). Outer hair cell (OHC) numbers were quantified with a Zeiss Axiovert 100/135 epifluorescent microscope (Germany) connected to a Bio-Rad MRC-1024 confocal laser scanning system (Richmond, Calif.). Hair cells were characterized as missing if no stereocilia and cuticular plate were observed. Numbers of OHCs were evaluated using a 40×objective lens and an ocular grid. Nine to 1 fields filled by 30 OHCs in each of the 3 rows (when all of them were present) were studied from each explant. Basal and middle coils were analyzed separately. Three separate experiments, each including 4 explants of both conditions (neomycin and neomycin plus Formula II) were analyzed.
as §1, with “μM” for “mM”, “hr. The compounds of Formula I and the compound of Formula I were added at 500 nM at the time of initiation of the cultures and every 12 hr thereafter. Neomycin plus vehicle was used as a control.” for “hr.”
as §2, with “X-100” for “X-l 00”, “40x objective” for “40×objective”, “Several” for “Nine to 1”, “separately.” for “separately. Three separate experiments, each including 4 explants of both conditions (neomycin and neomycin plus Formula II) were analyzed.”

Structure (SMILES): CCSCc1ccc2c(c1)c1c3c(c4c5cc(CSCC)ccc5n5c4c1n2C1C[C@](O)(C(=O)OC)[C@]5(C)O1)CNC3=O [Formula II]
- OHCs in the basal turn preserved (500 nM Formula II co-incubated with neomycin for 48 hr, n=12): Approximately 90%
- neomycin-induced sensory hair cell loss/degeneration (500 nM compound together with neomycin, 48 hr, in words): reduced; also recorded: prevented hair cell loss
- viability at 0.5 µM (Rattus norvegicus, 48 h, compound 500 nM plus 100 μM neomycin 48 hr, NEO = neomycin plus vehicle, each line a separate count, read-out: % preserved): 92%
